This passage reports IC50 results from US11505548B2, “Heterocyclic compounds and their use for treatment of helminthic infections and diseases” (Celgene Corporation, priority 2019, dated 2022).

The test concerns microfilariae of Dirofilaria immitis. The test can be described thus: Dirofilaria immitis, Microfilaria (DiMF) Assay. In kind it is cell-based. Particulars: read-out: D. immitis activity level (IC50 or MED). Here is the method:
Heartworm Screen Dirofilaria immitis (D. immitis)
Dirofilaria immitis, Microfilaria (DiMF) Assay.
Compounds were dissolved and serially diluted in DMSO. Aliquots were spotted to the empty wells of assay plates. Media and microfilariae of Dirofilaria immitis were added to each well to dilute the test compounds to the desired concentrations. Assay plates were incubated for approximately 72 hours, and the larvae in each well were observed microscopically for drug effect. Microfilariae in each well were assessed subjectively for survival or paralysis, and results were reported as Minimum Effective Dose (MED).
Active and selective (DiL4 vs. DiMF potency) example compounds were subsequently evaluated in heartworm positive dog studies to correlate the in vitro selectivity profile with in vivo effects on circulating microfilariae.

A word on the IC50: it is the concentration needed to halve the response being measured. Turning to `CC(C)Oc1ccc(-c2nsc(Nc3ncccc3N3CCCC3)n2)nc1` [Compound 116, 3-(5-isopropoxy-pyridin-2-yl)-N-(3-(pyrrolidin-1-yl)pyridin-2-yl)-1,2,4-thiadiazol-5-amine], the IC50 was in the range of 500 to 5000 nM.

`CC(C)Oc1ccc(-c2nsc(Nc3ncccc3N(C)C(=O)C3CC3)n2)nc1` [Compound 170, N-(2-(3-(5-isopropoxy-pyridin-2-yl)-1,2,4-thiadiazol-5-ylamino)pyridin-3-yl)-N-methylcyclo-propanecarbox-amide]: the IC50 lay in the range of 500 to 5000 nM.

On to `CC(C)Oc1ccc(-c2nsc(Nc3ncccc3C(=O)N(C)C3CC3)n2)nc1` [Compound 262, N-cyclo-propyl-2-(3-(5-isopropoxy-pyridin-2-yl)-1,2,4-thiadiazol-5-ylamino)-N-methyl-nicotinamide], for which the 50% inhibitory concentration (IC50) is 200 to 500 nM.

For `CC(C)Oc1cccnc1-c1nsc(Nc2cc(N3CCCC3)ccn2)n1` [Compound 94, 3-(3-isopropoxy-pyridin-2-yl)-N-(4-(pyrrolidin-1-yl)pyridin-2-yl)-1,2,4-thiadiazol-5-amine], the IC50 was in the range of 500 to 5000 nM.

Regarding `CNc1cccnc1Nc1nc(-c2ccc(OC(C)C)cn2)ns1` [Compound 108, N2-(3-(5-isopropoxypyridin-2-yl)-1,2,4-thiadiazol-5-yl)-N3-methyl-pyridine-2,3-diamine], the IC50 was in the range of 200 to 500 nM.

On to `CC(=O)N(C)c1cc(C(F)(F)F)cnc1Nc1nc(-c2cc(C(F)(F)F)c(OC(C)C)cn2)ns1` [Compound 268, N-(2-(3-(5-isopropoxy-4-(trifluoromethyl)pyridin-2-yl)-1,2,4-thiadiazol-5-ylamino)-5-(trifluoromethyl)pyridin-3-yl)-N-methylacetamide], for which the IC50 was less than 200 nM.

Take `Cc1cccnc1Nc1nc(-c2ccc(OC3CCOCC3)cn2)ns1` [Compound 15, N-(3-methyl-pyridin-2-yl)-3-(5-(tetrahydro-2H-pyran-4-yloxy)pyridin-2-yl)-1,2,4-thiadiazol-5-amine]: the IC50 is 500 to 5000 nM.

As for `FC(F)(F)c1cncc(Nc2nc(-c3ccccn3)ns2)c1` [Cmpd 3, 3-(pyridin-2-yl)-N-(5-(trifluoromethyl)pyridin-3-yl)-1,2,4-thiadiazol-5-amine], the IC50 is 500 to 5000 nM.

Take `CC(=O)N(C)c1ccc(-c2nsc(Nc3ncccc3C)n2)nc1` [Compound 269, N-methyl-N-(6-(5-(3-methylpyridin-2-ylamino)-1,2,4-thiadiazol-3-yl)pyridin-3-yl)acetamide]: the IC50 was in the range of 500 to 5000 nM.

Consider `COc1ccc(-c2nnc(Nc3cc(OC(C)C)ccn3)[nH]2)nc1` [Compound 257, 4-isopropoxy-N-(5-(5-methoxy-pyridin-2-yl)-4H-1,2,4-triazol-3-yl)pyridin-2-amine], for which the IC50 lay in the range of 500 to 5000 nM.

Take `CC(C)Oc1ccc(-c2nsc(Nc3ncccc3N3CCCC3=O)n2)nc1` [Compound 178, 1-(2-(3-(5-isopropoxy-pyridin-2-yl)-1,2,4-thiadiazol-5-ylamino)pyridin-3-yl)pyrrolidin-2-one]: the IC50 is 500 to 5000 nM.

As for `FC(F)(F)c1ccc(Nc2nc(-c3ccccn3)ns2)nc1` [Cmpd 1], the IC50 was less than 200 nM.

With `CC(C)Oc1ccc(-c2nsc(Nc3ncccc3N(C)C)n2)nc1` [Compound 56, N2-(3-(5-isoprop-oxypyridin-2-yl)-1,2,4-thiadiazol-5-yl)-N3,N3 - dimethyl-pyridine-2,3-diamine], the 50% inhibitory concentration (IC50) lay in the range of 200 to 500 nM.

Take `CC(C)Oc1ccc(-c2nsc(Nc3nccnc3N(C)C)n2)nc1` [Compound 144, N2-(3-(5-isoprop-oxypyridin-2-yl)-1,2,4-thiadiazol-5-yl)-N3,N3-dimethyl-pyrazine-2,3-diamine]: the IC50 lay within 200 to 500 nM.

`Cc1cccnc1Nc1nc(-c2cnc(OC(C)C)cn2)ns1` [Compound 124, 3-(5-isopropoxy-pyrazin-2-yl)-N-(3-methyl-pyridin-2-yl)-1,2,4-thiadiazol-5-amine]: the half-inhibitory concentration (IC50) lay within 500 to 5000 nM.

Regarding `COc1ccnc(-c2nsc(Nc3ccc(C(F)(F)F)cn3)n2)c1` [Compound 176, 3-(4-methoxy-pyridin-2-yl)-N-(5-(trifluoromethyl)pyridin-2-yl)-1,2,4-thiadiazol-5-amine], the IC50 is less than 200 nM.

Turning to `Cc1cccnc1Nc1nc(-c2ccc(O[C@@H]3CCN(C4CC4)C[C@H]3F)cn2)ns1` [Compound 91, 3-(5-((3R,4R)-1-cyclopropyl-3-fluoro-piperidin-4-yloxy)pyridin-2-yl)-N-(3-methylpyridin-2-yl)-1,2,4-thiadiazol-5-amine], the IC50 lay in the range of 500 to 5000 nM.

Regarding `FC(F)(F)c1ccnc(Nc2nc(-c3cc(C4CC4)ccn3)ns2)c1` [Compound 85, 3-(4-cyclopropyl-pyridin-2-yl)-N-(4-(trifluoromethyl)pyridin-2-yl)-1,2,4-thiadiazol-5-amine], the IC50 is less than 200 nM.

Regarding `CC(C)Oc1cnc(-c2nsc(Nc3ncccc3C(C)C)n2)cc1C#N` [Compound 201, 5-isopropoxy-2-(5-(3-isopropyl-pyridin-2-ylamino)-1,2,4-thiadiazol-3-yl)isonicotino-nitrile], the IC50 was less than 200 nM.

As to `Cc1cccnc1Nc1nc(-c2ccc(OCC3CC3)cn2)ns1` [Compound 73, 3-(5-(cyclopropyl-methoxy)pyridin-2-yl)-N-(3-methylpyridin-2-yl)-1,2,4-thiadiazol-5-amine], the IC50 was 200 to 500 nM.

As for `CN(C)c1cccnc1Nc1nc(-c2ccc(F)cn2)ns1` [Compound 121, N2-(3-(5-fluoro-pyridin-2-yl)-1,2,4-thiadiazol-5-yl)-N3,N3-dimethylpyridine-2,3-diamine], the IC50 was in the range of 500 to 5000 nM.

For the compound `CC(C)Oc1cnc(-c2nsc(Nc3ncc(C(C)C)cc3C(F)(F)F)n2)cc1C(=O)N(C)C` [Compound 219, 5-isopropoxy-2-(5-(5-isopropyl-3-(trifluoromethyl)pyridin-2-ylamino)-1,2,4-thiadiazol-3-yl)-N,N-dimethyliso-nicotinamide], the IC50 was 200 to 500 nM.

Take `FC(F)(F)c1cccnc1Nc1nc(-c2cc(C3CC3)ccn2)ns1` [Compound 84, 3-(4-cyclopropyl-pyridin-2-yl)-N-(3-(trifluoromethyl)pyridin-2-yl)-1,2,4-thiadiazol-5-amine]: the IC50 was less than 200 nM.

`CC(C)Oc1ccc(-c2nsc(Nc3ncccc3N(C)C)n2)nn1` [Compound 155, N2-(3-(6-isopropoxy-pyridazin-3-yl)-1,2,4-thiadiazol-5-yl)-N3,N3-dimethyl-pyridine-2,3-diamine]: the IC50 is 500 to 5000 nM.

In the case of `CC(C)c1ccnc(-c2nsc(Nc3ncccc3C(F)(F)F)n2)c1` [Compound 67, 3-(4-isopropyl-pyridin-2-yl)-N-(3-(trifluoromethyl)pyridin-2-yl)-1,2,4-thiadiazol-5-amine], the IC50 is less than 200 nM.

For the compound `CC(C)Oc1cnc(-c2nsc(Nc3ncccc3C(=O)N(C)C3CC3)n2)cc1C(F)(F)F` [Compound 263, N-cyclo-propyl-2-(3-(5-isopropoxy-4-(trifluoro-methyl)pyridin-2-yl)-1,2,4-thiadiazol-5-ylamino)-N-methyl-nicotinamide], the half-maximal inhibitory concentration (IC50) is less than 200 nM.

Regarding `FC(F)(F)c1ccc(Nc2nc(-c3cc(OC4CCCCC4)ccn3)ns2)nc1` [Compound 213, 3-(4-(cyclo-hexyloxy)pyridin-2-yl)-N-(5-(trifluoromethyl)pyridin-2-yl)-1,2,4-thiadiazol-5-amine], the IC50 was less than 200 nM.

As to `CC(C)Oc1ccc(-c2nsc(Nc3ncccc3C3CC3)n2)nc1` [Compound 76, N-(3-cyclopropyl-pyridin-2-yl)-3-(5-isopropoxy-pyridin-2-yl)-1,2,4-thiadiazol-5-amine], the IC50 was less than 200 nM.

Consider `CC(C)c1ccnc(-c2nsc(Nc3ncccc3N(C)C(=O)C3CC3)n2)c1` [Compound 217, N-(2-(3-(4-isopropylpyridin-2-yl)-1,2,4-thiadiazol-5-ylamino)pyridin-3-yl)-N-methylcyclo-propanecarbox-amide], for which the IC50 is 500 to 5000 nM.

As to `CCOc1cnc(-c2nsc(Nc3ncccc3N(C)C(C)=O)n2)cc1C(F)(F)F` [Compound 228, N-(2-(3-(5-ethoxy-4-(trifluoro-methyl)pyridin-2-yl)-1,2,4-thiadiazol-5-ylamino)pyridin-3-yl)-N-methyl-acetamide], the IC50 was 500 to 5000 nM.

Consider `Cc1cccnc1-c1noc(Nc2ccc(N3CCCC3)cn2)n1` [Compound 42, 3-(3-methyl-pyridin-2-yl)-N-(5-(pyrrolidin-1-yl)pyridin-2-yl)-1,2,4-oxadiazol-5-amine], for which the IC50 lay within 500 to 5000 nM.

Take `CC(C)c1cnc(Nc2nc(-c3ncccc3OC3CC3)ns2)cc1C(F)(F)F` [Compound 97, 3-(3-cycloprop-oxypyridin-2-yl)-N-(5-isopropyl-4-(trifluoromethyl)pyridin-2-yl)-1,2,4-thiadiazol-5-amine]: the IC50 was less than 200 nM.

With `Cc1cccnc1Nc1nc(-c2ccc(OC(C)C)cn2)no1` [Compound 20, 3-(5-isopropoxy-pyridin-2-yl)-N-(3-methyl-pyridin-2-yl)-1,2,4-oxadiazol-5-amine], the IC50 fell in the range of 500 to 5000 nM.

Take `COc1ccc(Nc2nc(-c3cc(OC4CCCCC4)ccn3)ns2)nc1` [Compound 183, 3-(4-(cyclo-hexyloxy)pyridin-2-yl)-N-(5-methoxypyridin-2-yl)-1,2,4-thiadiazol-5-amine]: the IC50 is less than 200 nM.

Turning to `COc1cccnc1Nc1nc(-c2cc(C(F)(F)F)c(OC(C)C)cn2)ns1` [Compound 167, 3-(5-isopropoxy-4-(trifluoromethyl)pyridin-2-yl)-N-(3-methoxypyridin-2-yl)-1,2,4-thiadiazol-5-amine], the IC50 was 500 to 5000 nM.

As to `Cc1cccnc1Nc1nc(-c2ccc(OC3CC3)cn2)ns1` [Compound 38, 3-(5-cyclo-propoxypyridin-2-yl)-N-(3-methyl-pyridin-2-yl)-1,2,4-thiadiazol-5-amine], the half-maximal inhibitory concentration (IC50) is 200 to 500 nM.
